From ChEMBL document CHEMBL5726174, “Therapeutic compounds and uses thereof” (2019) come the findings set out here.

For the assay, the target named is T1, Bromodomain-containing protein 9 (Homo sapiens, UniProt Q9H8M2).
T1 sequence (Q9H8M2 whole entry): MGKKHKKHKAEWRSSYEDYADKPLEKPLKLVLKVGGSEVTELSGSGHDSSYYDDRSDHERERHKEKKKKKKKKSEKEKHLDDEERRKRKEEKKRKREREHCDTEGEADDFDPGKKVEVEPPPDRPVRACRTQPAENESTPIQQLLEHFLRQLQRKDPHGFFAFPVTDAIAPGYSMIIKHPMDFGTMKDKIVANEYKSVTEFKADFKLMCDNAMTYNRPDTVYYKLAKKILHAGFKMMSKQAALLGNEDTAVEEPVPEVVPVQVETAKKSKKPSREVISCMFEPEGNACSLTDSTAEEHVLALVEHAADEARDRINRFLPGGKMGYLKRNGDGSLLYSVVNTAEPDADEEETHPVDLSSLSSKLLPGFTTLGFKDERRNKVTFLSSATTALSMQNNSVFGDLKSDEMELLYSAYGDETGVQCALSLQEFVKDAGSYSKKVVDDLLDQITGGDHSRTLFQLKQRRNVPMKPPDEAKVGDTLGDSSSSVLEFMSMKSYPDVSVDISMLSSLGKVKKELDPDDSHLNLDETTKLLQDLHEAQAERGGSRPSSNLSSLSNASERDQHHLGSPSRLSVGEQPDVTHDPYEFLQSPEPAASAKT
Put plainly: IC50 measurements for inhibitors using BRD9 AlphaLisa Binding Assay: His/Flag epitope tagged BRD9134-239 was cloned, expressed, and purified to homogeneity. […] After 20 minutes incubation at room temperature AlphaLisa Streptavidin Acceptor Beads (Perkin-AL125C) and AlphaLisa Nickel donor beads (Perkin AS 10 ID) were added to a final concentration of 15 ug/mL each.
For the compound `CCCCn1cc(-c2cc(C#N)ccc2OC)c2cc[nH]c2c1=O`, the IC50 came out at 46 nM.

In turn, `C=CCn1cc(-c2cc(OC)c(C(=O)N3CCOCC3)cc2OC)c2cc(C)[nH]c2c1=O` gave an IC50 of 9 nM. `C/C=C/Cn1cc(-c2cc(C(=O)NCC)ccc2OC)c2cc[nH]c2c1=O` returned an IC50 of 28 nM. Under `CC(C)(O)c1ccc(-c2cn(CCC3CC3)c(=O)c3[nH]ccc23)cc1` stands 280 nM.
